# Test results taken from ChEMBL document CHEMBL1649076, “Discovery of 5-chloro-N2-[(1S)-1-(5-fluoropyrimidin-2-yl)ethyl]-N4-(5-methyl-1H-pyrazol-3-yl)pyrimidine-2,4-diamine (AZD1480) as a novel inhibitor of the Jak/Stat pathway” (J Med Chem, 2011).
# What was measured:
# [1] = biological target: T1, Tyrosine-protein kinase JAK2 (Homo sapiens, UniProt O60674); assay: Inhibition of JAK2 using Km ATP concentration
# [2] = biological target: T1, Tyrosine-protein kinase JAK2; assay: Inhibition of JAK2 using 5 mM of ATP
# [3] = biological target: T2, Tyrosine-protein kinase JAK3 (Homo sapiens, UniProt P52333); assay: Inhibition of JAK3 using 5 mM of ATP
# T2 sequence (P52333 whole entry): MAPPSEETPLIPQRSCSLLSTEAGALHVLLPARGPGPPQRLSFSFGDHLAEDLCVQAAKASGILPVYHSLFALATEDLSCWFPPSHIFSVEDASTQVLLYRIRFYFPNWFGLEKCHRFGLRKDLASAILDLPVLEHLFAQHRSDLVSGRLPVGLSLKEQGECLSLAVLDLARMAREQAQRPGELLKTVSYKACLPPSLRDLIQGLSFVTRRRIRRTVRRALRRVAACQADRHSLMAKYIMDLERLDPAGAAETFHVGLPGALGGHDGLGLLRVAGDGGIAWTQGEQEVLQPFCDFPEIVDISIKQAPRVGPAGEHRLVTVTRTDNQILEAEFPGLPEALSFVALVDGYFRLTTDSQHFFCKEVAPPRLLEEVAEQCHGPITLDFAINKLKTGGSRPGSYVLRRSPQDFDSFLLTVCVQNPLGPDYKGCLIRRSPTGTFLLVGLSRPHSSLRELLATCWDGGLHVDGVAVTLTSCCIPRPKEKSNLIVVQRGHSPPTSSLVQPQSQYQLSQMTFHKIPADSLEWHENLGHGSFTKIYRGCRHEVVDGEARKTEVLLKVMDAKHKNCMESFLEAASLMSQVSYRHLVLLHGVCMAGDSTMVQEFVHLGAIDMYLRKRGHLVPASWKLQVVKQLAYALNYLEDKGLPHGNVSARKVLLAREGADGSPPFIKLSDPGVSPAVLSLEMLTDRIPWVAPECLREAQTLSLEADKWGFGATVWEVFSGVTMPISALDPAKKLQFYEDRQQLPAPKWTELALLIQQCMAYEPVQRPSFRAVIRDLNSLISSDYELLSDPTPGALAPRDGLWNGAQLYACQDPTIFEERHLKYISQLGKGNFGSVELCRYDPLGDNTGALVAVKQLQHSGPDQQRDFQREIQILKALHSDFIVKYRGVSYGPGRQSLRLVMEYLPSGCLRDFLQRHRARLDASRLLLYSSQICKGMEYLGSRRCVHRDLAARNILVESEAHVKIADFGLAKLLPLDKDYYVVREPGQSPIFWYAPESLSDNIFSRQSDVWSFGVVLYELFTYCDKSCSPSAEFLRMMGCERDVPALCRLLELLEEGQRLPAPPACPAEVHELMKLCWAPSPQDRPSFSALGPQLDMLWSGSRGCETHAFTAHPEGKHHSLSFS
# [4] = Growth inhibition of mouse BA/F3 cells expressing Tel-JAK2 kinase after 48 hrs by MTS assay; assay type: functional; conditions: BaF3, 48 h
# Liver microsomes = assay: Intrinsic clearance in rat liver microsomes assessed per mg of protein at 2 uM by LCMS/MS analysis; assay type: ADME, Microsome
# [5] = Oral bioavailability in Han Wistar rat at 10 mg/kg; assay type: ADME, organism-based; conditions: in vivo
# [6] = Observed clearance in Han Wistar rat at 10 mg/kg, po and 3 mg/kg, iv; assay type: ADME, organism-based; conditions: in vivo
# [7] = Volume of distribution at steady state in Han Wistar rat at 10 mg/kg, po and 3 mg/kg, iv; assay type: ADME, organism-based; conditions: in vivo, read-out: Vdss
# [8] = Half life in Han Wistar rat at 10 mg/kg, po and 3 mg/kg, iv; assay type: ADME, organism-based; conditions: in vivo
# [9] = Aqueous equilibrium solubility of the compound at pH 7.4 by HPLC-UV analysis; assay type: physicochemical
# [10] = Octanol-water partition coefficient, log D of the compound at pH 7.4 by shake flask method; assay type: physicochemical
# [11] = AUC (0 to 24 hrs) in Han Wistar rat at 10 mg/kg, po; assay type: ADME, organism-based; set-up: time < 24 hr, dose 10 mg/kg, route oral; conditions: plasma
# [12] = Observed clearance in CD1 mouse at 3 mg/kg, iv; assay type: ADME, organism-based; set-up: dose 3 mg/kg, route intravenous; conditions: in vivo
# [13] = Half life in CD1 mouse at 3 mg/kg, iv; assay type: ADME, organism-based; set-up: dose 3 mg/kg, route intravenous; conditions: in vivo
# [14] = Half life in CD1 mouse at 10 mg/kg, po; assay type: ADME, organism-based; set-up: dose 10 mg/kg, route oral; conditions: in vivo
# [15] = Volume of distribution at steady state in CD1 mouse at 3 mg/kg, iv; assay type: ADME, organism-based; set-up: dose 3 mg/kg, route intravenous; conditions: in vivo, read-out: Vdss
# [16] = AUC (0 to 12 hrs) in CD1 mouse at 10 mg/kg, po; assay type: ADME, organism-based; set-up: time < 12 hr, dose 10 mg/kg, route oral; conditions: plasma
# [17] = Oral bioavailability in CD1 mouse at 10 mg/kg; assay type: ADME, organism-based; conditions: in vivo
# [18] = Observed clearance in Beagle dog at 2.5 mg/kg, iv; assay type: ADME, organism-based, Canis lupus familiaris; set-up: dose 2.5 mg/kg, route intravenous; conditions: in vivo
# [19] = Half life in Beagle dog at 2.5 mg/kg, iv; assay type: ADME, organism-based, Canis lupus familiaris; set-up: dose 2.5 mg/kg, route intravenous; conditions: in vivo
# [20] = Half life in Beagle dog at 10 mg/kg, po; assay type: ADME, organism-based, Canis lupus familiaris; set-up: dose 10 mg/kg, route oral; conditions: in vivo
# [21] = Volume of distribution at steady state in Beagle dog at 2.5 mg/kg, iv; assay type: ADME, organism-based, Canis lupus familiaris; set-up: dose 2.5 mg/kg, route intravenous; conditions: in vivo, read-out: Vdss
# [22] = AUC (0 to 12 hrs) in Beagle dog at 10 mg/kg, po; assay type: ADME, organism-based, Canis lupus familiaris; set-up: time < 12 hr, dose 10 mg/kg, route oral; conditions: plasma
# [23] = Oral bioavailability in Beagle dog at 10 mg/kg; assay type: ADME, organism-based, Canis lupus familiaris; conditions: in vivo
# HEL = assay: Growth inhibition of human HEL cells expressing Jak2 V617F mutant after 48 hrs by MTS assay; assay type: functional
# [24] = Growth inhibition of human UKE1 cells expressing Jak2 V617F mutant after 48 hrs by MTS assay; assay type: functional; conditions: UKE1, 48 h
# [25] = biological target: High affinity nerve growth factor receptor (Homo sapiens, UniProt P04629); assay: Inhibition of TrkA
# Chain of High affinity nerve growth factor receptor (P04629 whole entry): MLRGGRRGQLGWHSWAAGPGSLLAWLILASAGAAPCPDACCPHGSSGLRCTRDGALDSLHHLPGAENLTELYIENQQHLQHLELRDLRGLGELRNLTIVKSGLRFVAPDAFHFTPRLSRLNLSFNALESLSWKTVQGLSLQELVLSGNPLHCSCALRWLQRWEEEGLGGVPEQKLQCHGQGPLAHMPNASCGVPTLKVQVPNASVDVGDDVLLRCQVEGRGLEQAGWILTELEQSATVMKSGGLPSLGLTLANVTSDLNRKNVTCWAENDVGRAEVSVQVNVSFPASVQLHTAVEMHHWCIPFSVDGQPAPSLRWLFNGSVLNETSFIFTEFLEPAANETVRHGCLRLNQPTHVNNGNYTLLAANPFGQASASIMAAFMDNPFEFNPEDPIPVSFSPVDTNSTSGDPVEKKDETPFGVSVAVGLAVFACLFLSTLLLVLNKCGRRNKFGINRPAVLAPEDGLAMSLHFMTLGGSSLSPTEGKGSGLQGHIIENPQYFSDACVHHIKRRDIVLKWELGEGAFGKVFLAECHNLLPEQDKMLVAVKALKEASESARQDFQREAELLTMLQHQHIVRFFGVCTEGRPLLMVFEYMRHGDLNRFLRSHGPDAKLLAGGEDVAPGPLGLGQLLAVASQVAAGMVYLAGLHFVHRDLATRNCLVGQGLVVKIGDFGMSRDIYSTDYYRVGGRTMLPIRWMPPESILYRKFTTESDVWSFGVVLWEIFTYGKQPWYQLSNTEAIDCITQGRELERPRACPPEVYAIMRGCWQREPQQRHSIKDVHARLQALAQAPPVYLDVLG
# [26] = Growth inhibition of human SET2 cells expressing Jak2 V617F mutant after 48 hrs by MTS assay; assay type: functional; conditions: SET-2, 48 h
# [27] = Growth inhibition of mouse BA/F3 cells expressing Tel-JAK3 kinase after 48 hrs by MTS assay; assay type: functional; conditions: BaF3, 48 h
# [28] = Growth inhibition of mouse BA/F3 cells expressing Tel-JAK1 kinase after 48 hrs by MTS assay; assay type: functional; conditions: BaF3, 48 h
# [29] = Growth inhibition of mouse BA/F3 cells expressing Tel-Tyk2 kinase after 48 hrs by MTS assay; assay type: functional; conditions: BaF3, 48 h
# Mus musculus [30] = assay: Antitumor activity against mouse BA/F3 cells expressing Tel-JAK2 xenografted in NCr mouse assessed as reduction of phosphorylated Stat5 level in spleen at 10 mg/kg, po after 8 hrs by Western blotting; assay type: functional, BaF3; set-up: scale not given: the % may be the effect or the level left
# Mus musculus [31] = assay: Antitumor activity against mouse BA/F3 cells expressing Tel-JAK2 xenografted in NCr mouse assessed as reduction of phosphorylated Stat5 level in spleen at 5 mg/kg, po after 2 hrs by Western blotting; assay type: functional, BaF3; set-up: scale not given: the % may be the effect or the level left
# Mus musculus [32] = assay: Antitumor activity against mouse BA/F3 cells expressing Tel-JAK2 xenografted in NCr mouse assessed as reduction of phosphorylated Stat5 level in spleen at 5 mg/kg, po after 6 hrs by Western blotting; assay type: functional, BaF3; set-up: scale not given: the % may be the effect or the level left
# [33] = Antitumor activity against mouse BA/F3 cells expressing Tel-JAK2-luc xenografted in NCr mouse assessed as reduction of bioluminescent signal at 50 mg/kg, po bid measured on day 9 post-tumor cell implantation relative to control; assay type: functional, BaF3
# [34] = Antitumor activity against mouse BA/F3 cells expressing Tel-JAK2-luc xenografted in NCr mouse assessed as reduction of bioluminescent signal at 30 mg/kg, po bid measured on day 9 post-tumor cell implantation relative to control; assay type: functional, BaF3
# [35] = Inhibition of Stat5 phosphorylation in mouse Ba/F3 cells expressing TEL-Jak2; assay type: cell-based; conditions: BaF3
# T1 sequence (O60674 whole entry): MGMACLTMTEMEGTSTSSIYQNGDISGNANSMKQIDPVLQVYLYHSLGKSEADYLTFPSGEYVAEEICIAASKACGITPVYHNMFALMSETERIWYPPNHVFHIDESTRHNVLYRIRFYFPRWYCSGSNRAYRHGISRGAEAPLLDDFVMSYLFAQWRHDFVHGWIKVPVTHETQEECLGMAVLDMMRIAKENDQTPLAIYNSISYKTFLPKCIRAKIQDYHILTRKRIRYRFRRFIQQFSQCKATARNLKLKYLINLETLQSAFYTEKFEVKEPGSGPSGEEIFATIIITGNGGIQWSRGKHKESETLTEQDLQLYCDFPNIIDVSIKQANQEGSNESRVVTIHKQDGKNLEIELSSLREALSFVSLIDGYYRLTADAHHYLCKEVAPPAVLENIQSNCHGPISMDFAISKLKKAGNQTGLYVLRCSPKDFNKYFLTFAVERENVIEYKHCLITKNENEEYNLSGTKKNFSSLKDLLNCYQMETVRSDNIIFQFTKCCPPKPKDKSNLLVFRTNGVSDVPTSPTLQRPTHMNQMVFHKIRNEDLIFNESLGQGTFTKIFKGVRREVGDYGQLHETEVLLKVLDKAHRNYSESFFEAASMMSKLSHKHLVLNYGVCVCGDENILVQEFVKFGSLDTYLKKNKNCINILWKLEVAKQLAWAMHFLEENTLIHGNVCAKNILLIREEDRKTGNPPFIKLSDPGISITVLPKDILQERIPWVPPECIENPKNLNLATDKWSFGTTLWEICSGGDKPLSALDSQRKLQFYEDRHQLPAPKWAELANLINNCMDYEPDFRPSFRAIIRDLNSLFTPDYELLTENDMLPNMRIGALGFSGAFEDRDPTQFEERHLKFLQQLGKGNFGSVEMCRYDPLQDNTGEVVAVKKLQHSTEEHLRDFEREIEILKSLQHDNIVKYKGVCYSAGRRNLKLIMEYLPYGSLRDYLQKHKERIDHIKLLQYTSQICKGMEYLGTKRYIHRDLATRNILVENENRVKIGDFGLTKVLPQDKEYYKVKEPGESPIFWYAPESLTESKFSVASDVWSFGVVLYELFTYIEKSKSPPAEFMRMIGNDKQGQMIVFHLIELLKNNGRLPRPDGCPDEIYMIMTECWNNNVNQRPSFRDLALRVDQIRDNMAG
structure (smiles),measurement,setting,value
Cc1cc(Nc2nc(N[C@@H](C)c3ncc(F)cn3)ncc2C)n[nH]1,IC50,[1],< 3 nM
same,IC50,[2],4 nM
same,IC50,[3],8350 nM
same,GI50,[4],96 nM
same,clearance,Liver microsomes,25 µL/min/mg
same,bioavailability,[5],100%
same,clearance,[6],18 mL/min/kg
same,Vd,[7],2.4 L/kg
same,half-life,[8],1.9 h
same,solubility thermodynamic,[9],> 460 µM
same,logD,[10],< 2.6
Cc1cc(Nc2nc(N[C@H](C)c3ncc(F)cn3)ncc2Cl)n[nH]1,AUC(0-t) at 24 h,[11],33.5 µM·h
same,GI50,[4],11000 nM
same,clearance,[6],19 mL/min/kg
same,Vd,[7],3 L/kg
same,half-life,[8],2.9 h
same,solubility thermodynamic,[9],> 460 µM
same,logD,[10],< 2.6
COc1cc(Nc2nc(N[C@@H](C)c3ncc(F)cn3)nc(N3CCOCC3)c2Cl)n[nH]1,IC50,[1],4 nM
same,IC50,[2],90 nM
same,IC50,[3],2960 nM
same,GI50,[4],1300 nM
same,solubility thermodynamic,[9],> 460 µM
same,logD,[10],< 2.6
Cc1cc(Nc2nc(N[C@@H](C)c3ncc(F)cn3)nc(N3CCOCC3)c2F)n[nH]1,IC50,[1],< 3 nM
same,IC50,[2],< 3 nM
same,IC50,[3],> 30000 nM
same,GI50,[4],13 nM
same,bioavailability,[5],34%
same,clearance,[6],14 mL/min/kg
same,Vd,[7],1.7 L/kg
same,half-life,[8],1.9 h
same,solubility thermodynamic,[9],> 460 µM
same,logD,[10],< 2.6
Cc1cc(Nc2nc(N[C@@H](C)c3ncc(F)cn3)ncc2Cl)n[nH]1 [AZD-1480],IC50,[1],< 3 nM
same,IC50,[2],58 nM
same,IC50,[3],1360 nM
same,GI50,[4],60 nM
same,clearance,Liver microsomes,11 µL/min/mg
same,bioavailability,[5],47%
same,clearance,[6],8.9 mL/min/kg
same,Vd,[7],3.6 L/kg
same,half-life,[8],4.7 h
same,clearance,[12],13.5 mL/min/kg
same,half-life,[13],1.5 h
same,half-life,[14],2 h
same,Vd,[15],1.1 L/kg
same,AUC(0-t) at 12 h,[16],57.6 µM·h
same,bioavailability,[17],100%
same,clearance,[18],2 mL/min/kg
same,half-life,[19],6.9 h
same,half-life,[20],8.5 h
same,Vd,[21],1 L/kg
same,AUC(0-t) at 12 h,[22],350 µM·h
same,bioavailability,[23],100%
same,solubility thermodynamic,[9],> 460 µM
same,GI50,HEL,390 nM
same,logD,[10],< 2.6
same,GI50,[24],54 nM
same,IC50,[25],3 nM
same,GI50,[26],16 nM
same,GI50,[27],2100 nM
same,GI50,[28],700 nM
same,GI50,[29],2000 nM
same,Activity,Mus musculus [30],>70%
same,Activity,Mus musculus [31],90%
same,Activity,Mus musculus [32],50%
same,Activity,[33],44
same,Activity,[34],9
same,IC50,[35],46 nM
C[C@H](Nc1ncc(F)c(Nc2cc(N(C)C)[nH]n2)n1)c1ncc(F)cn1,IC50,[1],16 nM
same,IC50,[2],815 nM
same,IC50,[3],> 30000 nM
same,GI50,[4],2200 nM
same,solubility thermodynamic,[9],> 460 µM
same,logD,[10],< 2.6
COc1cc(Nc2nc(N[C@@H](C)c3ncc(F)cn3)nc(N3CCOCC3)c2F)n[nH]1,IC50,[1],4 nM
same,IC50,[2],8 nM
same,IC50,[3],30500 nM
same,GI50,[4],240 nM
same,solubility thermodynamic,[9],> 460 µM
same,logD,[10],< 2.6
COc1cc(Nc2nc(N[C@@H](C)c3ncc(F)cn3)ncc2Cl)n[nH]1,IC50,[1],3 nM
same,IC50,[2],108 nM
same,IC50,[3],> 30000 nM
same,GI50,[4],410 nM
same,solubility thermodynamic,[9],> 460 µM
same,logD,[10],< 2.6
COc1cc(Nc2nc(N[C@@H](C)c3ncc(F)cn3)ncc2Br)n[nH]1,IC50,[1],4 nM
same,IC50,[2],108 nM
same,IC50,[3],> 30000 nM
same,GI50,[4],590 nM
same,solubility thermodynamic,[9],> 460 µM
same,logD,[10],< 2.6
Cc1cc(Nc2nc(O[C@H](C)c3ncc(F)cn3)ncc2Cl)n[nH]1,IC50,[3],> 30000 nM
same,GI50,[4],> 10000 nM
same,solubility thermodynamic,[9],> 460 µM
same,logD,[10],< 2.6
